{"source": "patent US8461142B2", "about": "“Water-soluble anionic bacteriochlorophyll derivatives and their uses” (Yeda Research and Development Co. Ltd., priority 2002, dated 2013)", "key": {"M2R mouse melanoma cells": {"system": "M2R mouse melanoma cells", "test": "Phototoxicity assay (Neutral Red viability after illumination), M2R cells", "assay_type": "cell-based", "settings": "4 hours incubation; for dark toxicity: kept in the dark, tested range; for LD50 (phototoxicity): washed, illuminated (λ>650 nm, 12 J/cm^2), survival 24 h after illumination", "protocol": "(§1) M2R mouse melanoma, H5V mouse endothelial and C6 rat glioma cells were cultured as monolayers in Dulbecco's modified Eagle's medium (DMEM)/F12 containing 25 mM HEPES, pH 7.4, 10% fetal bovine serum (FBS), glutamine (2 mM), penicillin (0.06 mg/ml), and streptomycin (0.1 mg/ml) (hereinafter referred to as the “Culture Medium”). Cells were grown at 37° C. in an 8% CO2-humidified atmosphere.\n(§2) To determine the photodynamic efficacy, cells were preincubated with increasing concentrations of the pigments in the dark for the times and conditions as indicated for the individual experiments. Unbound sensitizer was removed by washing the cells once with culture medium, and the plates were illuminated at room temperature from the bottom (λ>650 nm, 12 J/cm^2). The light source was a 100 W Halogen lamp (Osram, Germany) equipped with a 4-cm water filter. The cultures were placed in the culture incubator and cell survival was determined 24 h after illumination, by Neutral Red viability assay. Three kinds of controls were used: (i) light control: cells illuminated in the absence of pigments; (ii) dark control: cells treated with pigments but kept in the dark; and (iii) untreated cells that were kept in the dark.\n(§3) The phototoxicity of compounds 4 and 8 was determined as described in (ii) above in M2R mouse melanoma and H5V mouse endothelial cells. Cells were preincubated with increasing concentrations of the compound for 4 hours, washed and illuminated or kept in the dark."}, "[1]": {"system": "H5V mouse endothelial cells", "test": "Phototoxicity assay (Neutral Red viability after illumination), H5V cells", "assay_type": "cell-based", "settings": "4 hours incubation; for dark toxicity: kept in the dark, tested range; for LD50 (phototoxicity): washed, illuminated (λ>650 nm, 12 J/cm^2), survival 24 h after illumination", "protocol": "as §1, §2, §3"}, "[2]": {"test": "Pharmacokinetics in CD1 nude mice blood (Pd by ICP-MS)", "assay_type": "in vivo", "protocol": "FIG. 5 is a graph showing pharmacokinetics of compound 4 in CD1 nude mice blood. Following compound 4 injection (6 mg/kg), blood samples were collected from the same mouse at the indicated times and Pd was determined. Each time point represents average of three mice±STD. Pigment 4 of the invention (6 mg/kg body) was injected to CD1 nude mice via tail vein. Mice were sacrificed at the indicated times, and samples of the indicated organs or tissues were placed and weighed in pre-weighted vials and immediately frozen on dry ice. For examination, each sample was thawed and homogenized (1:10 w/v) in double-distilled water. Aliquots of the homogenate (0.5 ml) were lyophilized in Eppendorff test tubes. […] Palladium concentrations were determined by ICP-MS. Background was determined for each organ/tissue on identical samples taken from untreated mice, and values were subtracted accordingly."}, "[3]": {"test": "Biodistribution in CD1 nude mice (Pd content of organs)", "assay_type": "in vivo", "protocol": "Mice were sacrificed at different times following compound 4 injection (6 mg/kg), and Pd content was determined for the indicated organs. Each time point represents average of three mice±STD.\nPigment 4 of the invention (6 mg/kg body) was injected to CD1 nude mice via tail vein. Mice were sacrificed at the indicated times, and samples of the indicated organs or tissues were placed and weighed in pre-weighted vials and immediately frozen on dry ice. For examination, each sample was thawed and homogenized (1:10 w/v) in double-distilled water. Aliquots of the homogenate (0.5 ml) were lyophilized in Eppendorff test tubes. Then 0.2 ml of HNO3 (70%, TraceSelect, Fluka) was added to each dry sample, incubated for 1 h at 90° C. and diluted in double-distilled water to 10 ml. Palladium concentrations were determined by ICP-MS. Background was determined for each organ/tissue on identical samples taken from untreated mice, and values were subtracted accordingly."}, "M2R melanoma xenografts": {"system": "M2R melanoma xenografts", "test": "PDT of M2R melanoma xenografts in CD1 nude mice", "assay_type": "in vivo", "settings": "for mice cure rate: 6 mg/kg i.v.", "protocol": "(§4) M2R or C6 cells (2×10^6) were implanted subcutaneously on the back of the mice; tumors developed to the treatment size (6-8 mm) within 2-3 weeks.\nStock solutions of the compounds of the invention were prepared prior to use by dissolving the dry pigment directly in PBS to the desired concentration for injection.\nThe M2R tumor-bearing mice were anesthetized and the pigment was injected intravenously (i.v.) via the tail vein. The tumors were immediately illuminated transcutaneously for 5 min by 755 nm diode laser (CeramOptec, Germany) with light dose of either 30 J/cm2 (100 mW/cm2), 39 J/cm2 (130 mW/cm2) or 45 J/cm2 (150 mW/cm2). After the treatment, the mice were returned to the cage. […] In the light control group, the mice were illuminated with 45 J/cm^2.\nIn these experiments (see section (vii) above), a dedicated medical laser matched to the peak absorption of 4 (CeramOptec, Germany, 755 nm) was used. In order to determine the optimal drug/light protocol, mice were treated with drug dose of 6 mg/kg and increasing the light intensity (FIG. 7)."}, "rat C6 glioma xenografts": {"system": "rat C6 glioma xenografts", "test": "Vascular shutdown and permeability (Evans Blue) after PDT of C6 glioma xenografts", "assay_type": "in vivo, mice", "settings": "9 mg/kg, 100 mW/cm^2 for 5 min; 24 hours after PDT", "protocol": "FIGS. 8a-8h are photographs showing the selective effect of PDT in mice bearing rat C6 glioma xenografts and treated with compound 4. (a-d) PDT treated animal; (e-h) untreated animal. (a) before treatment; (b) 3 hours after PDT and Evans-Blue (EB) injection; (c) skin flap of the treated area, 24 hours after PDT; (d) axial slice of the treated tumor 24 hours after PDT; (e) before EB injection; (f) 3 hours after EB injection; (g) skin flap 24 hours after EB injection; (h) axial slice of the untreated tumor, 24 hours after EB injection. T-tumor; S-skin; M-muscle; E-edema.\nas §4\nMice bearing C6 glioma tumor xenografts were treated with pigment 4 (9 mg/kg) and light (100 mW/cm^2 for 5 min) Immediately after treatment, Evans Blue (EB; 1% in PBS) was injected (0.5 ml, i.p.). Mice were photographed at 3 and 24 hours after treatment. The mice were sacrificed 24 hours after treatment and skin flap was made for each mouse and photographed. Then the tumor was removed with the skin above it, frozen for 1 hour at −20° C., and then axial slice was made and the slice was photographed. Control mice were injected with Evans Blue at the same time as the treated mice, and the protocol was continued as described above for all the mice together."}, "[4]": {"test": "Aqueous solubility and stability of solution", "assay_type": "physicochemical", "from_the_text": "Compound 4 is a pure and stable bacteriochlorophyll derivative isolated as a black purple crystalline powder. […] It is characterized by the following properties: (a) 4 main absorption peaks (750, 530, 385 and 330 nm). The strongest absorbance of light is near the infrared (≈750 nm) where tissue transmittance is the highest; (b) a very low cytotoxicity in the dark. Thus, tissue damage can be controlled by the light dose and length of exposure; (c) it is rapidly cleared from the body after administration. Therefore, potential skin photosensitization damage on exposure to ambient light or to the sun light is minimal; (d) generation of reactive oxygen species (ROS) is high because of efficient intersystem crossing (ISC)."}, "[5]": {"system": "choroid and overlying retina (choriocapillaries)", "method": "The WST11 powder was diluted in endotoxin-free sterile water at a concentration of 10 mg/ml, and shaken until complete dissolution. […] To calculate the volume to be injected, adjustment was made according to the rabbit weight. The appropriate volume solution was injected intravenously as a bolus via the marginal ear vein.\nPigmented rabbits (136 “Fauve de Bourgogne” rabbits, 10-12 weeks old, 2.5-3 kg; Elevage des Pins, Epeigne-sur-Dême, France) were used. Acute and long term PDT effects on the rabbit eye were investigated for the following parameters: 1) 753 nm laser fluence (25 and 50 J/cm^2), Compound 4 (also designated WST11) doses (2.5 and 5 mg/kg) and distance to light illumination (DLI) of 1,5,10 and 15 minutes. 2) 689 nm laser fluence (10, 50, 100 J/cm^2), verteporfin doses (3, 6 and 12 mg/m^2) and a constant DLI of 5 min. These PDT parameters encompassed an array of effects on the choroid and the overlying retina were delivered for 83 seconds to induce occlusive, subthreshold occlusive and non-occlusive vascular events. Treated rabbit eyes were examined and followed by indirect ophthalmoscopy, fluorescein angiography (FA) and histology at various intervals after PDT.\nFor the histology, enucleated eyes were dissected under a binocular microscope. A 4 mm biopsy punch was used to excise the full thickness of treated zones. These tissues were fixed in glutaraldehyde, processed in cacodylate buffer and embedded in plastic. Semi-thin sections were obtained using a microtome and counter-stained with hematoxilin-eosin. These sections were analyzed using phase contrast microscopy. Specific sites of interest were further processed for TEM. Ultrathin sections were obtained using an ultramicrotome and counter-stained with uranyl acetate."}}, "data": [{"molecule": "CC[C@H]1c2cc3[nH]c(c(CC(=O)OC)c4nc(cc5[nH]c(cc(n2)[C@@H]1C)c(C(C)=O)c5C)[C@@H](C)[C@@H]4CCC(=O)O)c(C(=O)NCCS(=O)(=O)[O-])c3C.[K+]", "note": "[Compound 5, 3^1-oxo-15-methoxycarbonylmethyl-Rhodobacteriochlorin 13^1-(2-sulfoethyl)amide dipotassium salt]", "values": [{"measurement": "dark toxicity", "setting": "M2R mouse melanoma cells", "result": "no dark toxicity"}, {"measurement": "LD50 (phototoxicity)", "setting": "M2R mouse melanoma cells", "result": "~5", "unit": "µM"}]}, {"molecule": "Palladium 3^1-oxo-15-methoxycarbonylmethyl-Rhodobacteriochlorin 13^1,17^3-di(3-sulfopropyl)amide dipotassium salt [Compound 8]", "values": [{"measurement": "dark toxicity", "setting": "[1]", "result": "without any dark toxicity"}, {"measurement": "LD50 (phototoxicity)", "setting": "[1]", "result": "~2", "unit": "µM"}, {"measurement": "dark toxicity", "setting": "M2R mouse melanoma cells", "result": "without any dark toxicity"}, {"measurement": "LD50 (phototoxicity)", "setting": "M2R mouse melanoma cells", "result": "~2", "unit": "µM"}]}, {"molecule": "Palladium 3^1-oxo-15-methoxycarbonylmethyl-Rhodobacteriochlorin 13^1-(2-sulfo-ethyl)amide dipotassium salt [Compound 4]", "values": [{"measurement": "dark toxicity", "setting": "[1]", "result": "without any dark toxicity"}, {"measurement": "LD50 (phototoxicity)", "setting": "[1]", "result": "~2", "unit": "µM"}, {"measurement": "dark toxicity", "setting": "M2R mouse melanoma cells", "result": "without any dark toxicity"}, {"measurement": "LD50 (phototoxicity)", "setting": "M2R mouse melanoma cells", "result": "~2", "unit": "µM"}, {"measurement": "CL (clearance)", "setting": "[2]; 6 mg/kg i.v., mice blood", "result": 0.89, "unit": "mL/min"}, {"measurement": "Kel (rate of elimination)", "setting": "[2]; 6 mg/kg i.v., mice blood", "result": 0.42, "unit": "min⁻¹"}, {"measurement": "Vd (volume of distribution)", "setting": "[2]; 6 mg/kg i.v., mice blood", "result": 2.12, "unit": "mL"}, {"measurement": "T0.5", "setting": "[2]; 6 mg/kg i.v., mice blood, monophasic", "result": 1.65, "unit": "min"}, {"measurement": "pigment cleared from blood within the first 10-min after i.v. injection", "setting": "[2]; mouse, in vivo", "result": "about 90%"}, {"measurement": "time after injection to background levels in all tissues", "setting": "[3]; 6 mg/kg i.v.", "result": "≤ 30", "unit": "min"}, {"measurement": "time for pigment levels to drop to almost background levels in most of the examined organs", "setting": "[3]; 6 mg/kg i.v.", "result": "20 to 30", "unit": "min"}, {"measurement": "mice cure rate", "setting": "M2R melanoma xenografts; 30 J/cm^2, 5 min illumination at 755 nm immediately after injection", "result": 43, "unit": "%"}, {"measurement": "mice cure rate", "setting": "M2R melanoma xenografts; 45 J/cm^2, 5 min illumination at 755 nm immediately after injection", "result": 60, "unit": "%"}, {"measurement": "mice survival", "setting": "M2R melanoma xenografts; 9 mg/kg i.v., 30 J/cm^2, 5 min illumination", "result": 70, "unit": "%"}, {"measurement": "dark toxicity in animals", "setting": "M2R melanoma xenografts; 6 or 9 mg/kg, kept in the dark", "result": "No dark toxicity"}, {"measurement": "effect on tumor blood perfusion (Evans Blue)", "setting": "rat C6 glioma xenografts", "result": "vascular shutdown"}, {"measurement": "stability of formulation", "setting": "[4]; 10 mg/ml in endotoxin-free sterile water, 4° C., protected from light", "result": 24, "unit": "h"}, {"measurement": "solubility", "setting": "[4]; aqueous solution", "result": "soluble in aqueous solution"}, {"measurement": "treated eyes with total choroidal occlusion associated with structural lesions of the overlying RPE and retina", "setting": "[5]; fluence 50 J/cm^2, 5 mg/kg, DLI 1 minute, 753 nm", "result": 100, "unit": "%"}, {"measurement": "choriocapillaries occlusion and retinal lesions", "setting": "[5]; non-occlusive parameters: 25 J/cm^2, 5 mg/kg, DLI 10 minutes", "result": "did not induce choriocapillaries occlusion nor retinal lesions"}, {"measurement": "duration of occlusion of the choriocapillaries after PDT", "setting": "[5]; rabbit eye", "result": "up to one week"}]}, {"molecule": "Pd-Bacteriopheophorbide a [Pd-Bpheid, reference compound]", "values": [{"measurement": "time after injection to reach background levels", "setting": "[3]; mouse body, not shown", "result": 48, "unit": "h"}]}, {"molecule": "Zinc 3^1-oxo-15-methoxycarbonylmethyl-Rhodobacteriochlorin 13^1-(2-sulfoethyl) amide dipotassium salt [Compound 11]", "values": [{"measurement": "dark toxicity", "setting": "M2R mouse melanoma cells", "result": "no dark toxicity"}, {"measurement": "LD50 (phototoxicity)", "setting": "M2R mouse melanoma cells", "result": "~5", "unit": "µM"}]}, {"molecule": "verteporfin [reference compound]", "values": [{"measurement": "eyes with occlusive events (observed by FA)", "setting": "[5]; 12 mg/m^2, 100 J/cm^2, DLI 5 minutes, 689 nm", "result": 89, "unit": "%"}, {"measurement": "choriocapillaries occlusion on FA", "setting": "[5]; non-occlusive parameters: 3 mg/m^2, 10 J/cm^2, DLI 5 minutes", "result": "did not induce any choriocapillaries occlusion"}]}]}
